Experimental data published in patent US20070259375A1, “Biomarkers and Methods for Determining Sensitivity to Epidermal Growth Factor Receptor Modulators in Non-Small Cell Lung Cancer” (Bristol-Myers Squibb Company, priority 2004, published 2007).

Legend:
ChagoK1 = experiment: Relative drug sensitivity in NSCLC cell lines, BrdU Cell Proliferation ELISA; type: cell-based, human; settings: ChagoK1 cell line
Procedure: (§1) The NSCLC cell lines were grown using standard cell culture conditions: DMEM supplemented to contain 10% fetal bovine serum, 100 IU/ml penicillin, […] streptomycin and 2 mM L-glutamine (all from Invitrogen Life Technologies, Carlsbad, Calif.). […] Cytotoxicity was assessed in cells by BrdU Cell Proliferation calorimetric ELISA (Roche Applied Science, Indianapolis, Ind.). This is a calorimetric immunoassay for the quantification of cell proliferation based on the measurement of BrdU incorporation during DNA synthesis. To carry out the assays, the NSCLC cells were plated at 2500-5000 cells/well in 96 well microtiter plates and 24 hours later diluted monoclonal antibody drug was added. […] The cells were incubated at 37° C. for 48 hours at which time the BrdU labeling reagent was added. After two hours the labeling medium was removed and cells were fixed and the DNA was denatured using a FixDenat solution. The anti-BrdU antibody conjugated with peroxidase was added and immune complexes were detected by the subsequent substrate reaction. The reaction product was quantified by measuring the absorbance of the samples in an ELISA reader at […]. The greater the absorbency, the greater the number of live cells. […] Three to six independent BrdU assays were performed for each cell line.

A549 = experiment: as above; type: cell-based, human; settings: A549 cell line, EGFR+
Procedure: as §1

H522 = experiment: as above; type: cell-based, human; settings: H522 cell line, EGFR negative
Procedure: as §1

L2987 = experiment: as above; type: cell-based, human; settings: L2987 cell line
Procedure: as §1

LX1 = experiment: as above; type: cell-based, human; settings: LX1 (LX-1) cell line, EGFR negative
Procedure: as §1

H226 = experiment: as above; type: cell-based, human; settings: H226 cell line, EGFR+
Procedure: as §1

A549 lung xenograft = experiment: In vivo antitumor testing, lung xenograft model; settings: nude mice
Procedure: (§2) Tumors were propagated in nude mice as subcutaneous (sc) transplants using tumor fragments obtained from donor mice. Tumor passage occurred approximately every two to four weeks. Tumors were then allowed to grow to the pre-determined size window (usually between 100-200 mg, tumors outside the range were excluded) and animals were evenly distributed to various treatment and control groups. […] Treated animals were checked daily for treatment related toxicity/mortality. Each group of animals was weighed before the initiation of treatment (Wt1) and then again following the last treatment dose (Wt2). The difference in body weight (Wt2-Wt1) provided a measure of treatment-related toxicity. Tumor response was determined by measurement of tumors with a caliper twice a week, until the tumors reached a predetermined target size of 1 gm or became necrotic. Tumor weights (mg) were estimated from the formula: Tumor weight=(length×width^2)/2 Antitumor activity was determined in terms of primary tumor growth inhibition. This was determined in two ways: (i) calculating the relative median tumor weight (MTW) of treated (T) and control (C) mice at various time points (effects were expressed as % T/C); and (ii) calculating the tumor growth delay (T-C value), defined as the difference in time (days) required for the treated tumors (T) to reach a predetermined target size compared to those of the control group (C). Statistical evaluations of data were performed using Gehan's generalized Wilcoxon test for comparisons of time to reach tumor target size (Gehan 1965). Statistical significance was declared at p<0.05. Antitumor activity was defined as a continuous MTW % T/C≦50% for at least 1 tumor volume doubling time (TVDT) any time after the start of treatment, where TVDT (tumor volume doubling time)=median time (days) for control tumors to reach target size−median time (days) for control tumors to reach half the target size.
(§3) Treated animals were checked daily for treatment related toxicity/mortality.

LX1 lung xenograft = experiment: In vivo antitumor testing, lung xenograft model; settings: nude mice
Procedure: as §2, §3

L2987 lung xenograft = experiment: In vivo antitumor testing, lung xenograft model; settings: nude mice
Procedure: as §2, §3

Structure (SMILES): COc1cc2ncnc(Nc3ccc(F)c(Cl)c3)c2cc1OCCCN1CCOCC1 [gefitinib]
- resistance/sensitivity classification (ChagoK1): sensitive
- resistance/sensitivity classification (A549): resistant
- resistance/sensitivity classification (H522): resistant
- resistance/sensitivity classification (L2987): resistant
- resistance/sensitivity classification (LX1): resistant
- resistance/sensitivity classification (H226): resistant
- sensitivity of lung xenograft model (A549 lung xenograft): borderline sensitive
- sensitivity of lung xenograft model (LX1 lung xenograft): resistant
- sensitivity of lung xenograft model (L2987 lung xenograft): sensitive
